The values that follow come from ChEMBL document CHEMBL1201862, “PubChem BioAssay data set” (2004).

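In this assay, cells in 96-well plates receive the compound at five concentrations for 48 hours. Endpoints are linearly interpolated between the surrounding concentrations. At the GI50, growth is halved.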 Active and inactive are the calls of the source. No stated cut-off is given here; in the data, active = GI50 up to about 1.1 µM and inactive = higher.

Some test systems named below: COLO 205; HCT-116; HCT-15; HT-29; IGROV-1; M14; NCI-H226; OVCAR-5; OVCAR-8; RXF 393; SF-295; SF-539; SK-MEL-5; SNB-75; SW-620; UACC-62; 786-0; A498; CCRF-CEM; NCI-H522.
Holding throughout (assay): NCI-60 cell line screen, 48 h

As to `CCN(CC)CCO[Si](OCCN(CC)CC)(OCCN(CC)CC)OCCN(CC)CC`, the GI50 in the assay with COLO 205 was > 100 µM (inactive); in the assay on HCT-116, > 10 µM (inactive); in the assay with HCT-15, greater than 100 µM; in the assay with HT-29, > 100 µM (inactive); with IGROV-1, > 100 µM (inactive); in the assay on M14 it was > 100 µM (inactive). In addition, the GI50 in the assay on NCI-H226 is 88.5 µM (inactive); in the assay with OVCAR-5, > 100 µM (inactive); in the assay with OVCAR-8 it was > 100 µM (inactive); in the assay with RXF 393 it was > 100 µM (inactive); in the assay on SF-295, > 100 µM (inactive); in the assay on SF-539 it was > 100 µM (inactive). Further, the GI50 in the assay on SK-MEL-5, with SNB-75, in the assay with SW-620 and with UACC-62 was > 100 µM (inactive) each time.

Consider `N=c1n(C(=O)N2CCCC2)c2cc(Cl)ccc2n1C1=NCCN1`, for which the GI50 in the assay with 786-0 was 54 µM (inactive); in the assay on A498, > 100 µM (inactive); in the assay with CCRF-CEM, 41.7 µM (inactive); with COLO 205, > 100 µM (inactive); in the assay on HCT-116, 55.5 µM (inactive); in the assay with HCT-15 it was 40.6 µM. Also, the GI50 with HT-29 was 75.7 µM (inactive); in the assay with IGROV-1 it was 73.3 µM (inactive); with M14, 59.6 µM (inactive); in the assay on NCI-H226 it was > 100 µM (inactive); in the assay on NCI-H522, 38.6 µM (inactive); in the assay with OVCAR-5, > 100 µM (inactive). The GI50 with OVCAR-8 is 88.3 µM (inactive); in the assay with RXF 393 it was 82.4 µM (inactive); in the assay on SF-295 it was > 100 µM (inactive); with SF-539, 55.2 µM (inactive); in the assay on SK-MEL-5, 83 µM (inactive); with SW-620, 52.6 µM (inactive). For the same molecule, the GI50 with UACC-62 is > 100 µM (inactive).

For the molecule `COc1ccc(NC(=O)C(=O)NNC(=O)c2sc(NNC(C)=O)nc2C)c([N+](=O)[O-])c1`, the GI50 was > 100 µM (inactive) with 786-0; 33.3 µM (inactive) in the assay with A498; 24.2 µM (inactive) in the assay with CCRF-CEM; > 100 µM (inactive) in the assay on COLO 205; > 100 µM (inactive) with HCT-116; 91.6 µM in the assay on HCT-15. Besides, the GI50 in the assay on HT-29 is > 100 µM (inactive); in the assay on IGROV-1, > 10 µM (inactive); in the assay on M14, > 100 µM (inactive); in the assay on NCI-H226, > 100 µM (inactive); with NCI-H522 it was 30.1 µM (inactive); in the assay on OVCAR-5, > 100 µM (inactive). Besides, the GI50 with OVCAR-8 is > 100 µM (inactive); in the assay with SF-295 it was > 100 µM (inactive); with SF-539, > 100 µM (inactive); with SK-MEL-5, > 100 µM (inactive); in the assay with SW-620 it was 35.6 µM (inactive); with UACC-62, 82.6 µM (inactive).

Consider `CCOC(=O)C1(C#N)C(c2ccccc2)CC(O)(c2ccc(OC)cc2)C(C(=O)c2ccc(OC)cc2)C1c1ccccc1` (stereo unspecified), for which the GI50 in the assay with 786-0 was > 100 µM (inactive); in the assay with CCRF-CEM, > 100 µM (inactive); in the assay on COLO 205, > 100 µM (inactive); in the assay on HCT-116 it was > 100 µM (inactive); in the assay on HCT-15 it was greater than 100 µM; with HT-29 it was > 100 µM (inactive). Also, the GI50 in the assay on IGROV-1, in the assay on M14, in the assay with NCI-H226, in the assay with NCI-H522, in the assay on OVCAR-5 and in the assay with OVCAR-8 was > 100 µM (inactive) throughout. In addition, the GI50 was > 100 µM (inactive) with RXF 393; > 100 µM (inactive) in the assay on SF-295; > 100 µM (inactive) in the assay with SK-MEL-5; 27.7 µM (inactive) with SNB-75; > 100 µM (inactive) in the assay with SW-620; > 100 µM (inactive) in the assay with UACC-62.

As for `CCc1ncc(C(C)(O)c2ccccc2)n1Cc1ccccc1` (stereo unspecified), the GI50 in the assay with CCRF-CEM was 48.9 µM (inactive); in the assay with COLO 205, 27.8 µM (inactive); in the assay on HCT-116 it was 0.124 µM (active); in the assay on HCT-15, 41.5 µM; in the assay with HT-29, 31.8 µM (inactive); in the assay on IGROV-1, 42.4 µM (inactive). Besides, the GI50 is 0.294 µM (active) in the assay on M14; 21.5 µM (inactive) with NCI-H226; 42.1 µM (inactive) in the assay on NCI-H522; 98.6 µM (inactive) with OVCAR-5; 36.1 µM (inactive) in the assay on OVCAR-8; > 100 µM (inactive) in the assay with RXF 393. Further, the GI50 is > 100 µM (inactive) in the assay with SF-295; 37.2 µM (inactive) in the assay with SF-539; 17.8 µM (inactive) in the assay with SK-MEL-5; 48.6 µM (inactive) with SNB-75; 31.6 µM (inactive) in the assay on SW-620; 20.9 µM (inactive) with UACC-62.

Regarding `CC(C)CCNc1ncnc2[nH]ncc12`, the GI50 is > 100 µM (inactive) with 786-0; 45 µM (inactive) with A498; 63.4 µM (inactive) with COLO 205; > 100 µM (inactive) in the assay on HCT-116; greater than 100 µM with HCT-15; > 100 µM (inactive) in the assay on HT-29. Moreover, the GI50 was > 100 µM (inactive) with IGROV-1; > 100 µM (inactive) in the assay with M14; 60.3 µM (inactive) in the assay on NCI-H226; 59.4 µM (inactive) in the assay with NCI-H522; 49.4 µM (inactive) in the assay on OVCAR-5; > 100 µM (inactive) in the assay on OVCAR-8. In addition, the GI50 in the assay on RXF 393 was > 100 µM (inactive); in the assay on SF-295, 52.1 µM (inactive); in the assay with SK-MEL-5, 36.6 µM (inactive); in the assay with SNB-75, > 100 µM (inactive); in the assay on SW-620, > 100 µM (inactive); in the assay with UACC-62, > 100 µM (inactive).

Take `CC(O)(P(=O)(O)O)P(=O)(O)OCC(O)CN1CCOCC1` (stereo unspecified): the GI50 in the assay on 786-0 was > 100 µM (inactive); in the assay with A498, > 100 µM (inactive); with CCRF-CEM it was > 100 µM (inactive); in the assay on COLO 205, > 100 µM (inactive); in the assay with HCT-116 it was > 100 µM (inactive); in the assay with HCT-15 it was greater than 100 µM. The GI50 in the assay on HT-29, in the assay with IGROV-1, in the assay with M14, with NCI-H226, in the assay with NCI-H522 and with OVCAR-5 was > 100 µM (inactive) throughout. Also, the GI50 in the assay with OVCAR-8 was > 100 µM (inactive); with RXF 393, > 100 µM (inactive); with SF-295 it was > 100 µM (inactive); with SF-539 it was 95.1 µM (inactive); in the assay on SW-620, > 100 µM (inactive); in the assay on UACC-62, > 100 µM (inactive).

On to `CCOC(=O)Cc1cc(OC)c(OC)cc1/C(Cl)=C(\CO)c1ccc(OC)c(OC)c1`, for which the GI50 with CCRF-CEM was > 100 µM (inactive); with COLO 205, > 100 µM (inactive); in the assay with HCT-116 it was > 100 µM (inactive); with HCT-15, greater than 100 µM; with HT-29, > 100 µM (inactive); with IGROV-1 it was > 100 µM (inactive). In addition, the GI50 in the assay with M14 is > 100 µM (inactive); with OVCAR-8, > 100 µM (inactive); in the assay with RXF 393, 37.9 µM (inactive); in the assay on SF-295 it was 39.8 µM (inactive); in the assay on SK-MEL-5, 30.7 µM (inactive); with SNB-75 it was 23.8 µM (inactive). Also, the GI50 with SW-620 and in the assay with UACC-62 was > 100 µM (inactive) each time.

For the molecule `Nc1ncnc2c1ncn2C1C(O)C=C(CO)C1O` (stereo unspecified), the GI50 in the assay with COLO 205 is > 625 µM (inactive); with HCT-116, > 625 µM (inactive); in the assay on HCT-15 it was greater than 625 µM; in the assay on HT-29, > 625 µM (inactive); in the assay with IGROV-1, > 625 µM (inactive); in the assay on NCI-H226, > 625 µM (inactive). Besides, the GI50 in the assay on OVCAR-8, in the assay on SF-295, in the assay with SF-539, in the assay on SK-MEL-5, in the assay on SW-620 and in the assay with UACC-62 was > 625 µM (inactive) each time.

As for `COC(=O)N[C@H](C(=O)NC(OCc1ccccc1)C1COC(C)(C)O1)C(C)O[Si](C)(C)C(C)(C)C` (stereo partly specified), the GI50 was > 100 µM (inactive) with 786-0; > 100 µM (inactive) in the assay on A498; > 100 µM (inactive) in the assay with CCRF-CEM; > 100 µM (inactive) in the assay on COLO 205; > 100 µM (inactive) with HCT-116; 58.3 µM in the assay on HCT-15. The GI50 in the assay on HT-29 was 24.3 µM (inactive); with IGROV-1, > 100 µM (inactive); with M14, > 100 µM (inactive); with OVCAR-5 it was > 100 µM (inactive); in the assay on OVCAR-8, > 100 µM (inactive); in the assay with RXF 393, > 100 µM (inactive). Further, the GI50 is 26.7 µM (inactive) in the assay with SK-MEL-5, 38.4 µM (inactive) with SNB-75 and 75.3 µM (inactive) in the assay on SW-620.

`OC1(c2ccc(Cl)cc2)c2ccc3ccccc3c2C2=N[C@H]3CCCC[C@@H]3N21` (stereo partly specified): the GI50 in the assay with A498 was 20.3 µM (inactive); in the assay on CCRF-CEM, 21.7 µM (inactive); with COLO 205 it was 5.81 µM (inactive); in the assay on HCT-116, 3.27 µM (inactive); in the assay with HCT-15, 4.75 µM; in the assay with IGROV-1, 13.5 µM (inactive). In addition, the GI50 in the assay on M14 was 2.52 µM (inactive); in the assay with NCI-H226 it was 43.8 µM (inactive); in the assay on NCI-H522, 10.3 µM (inactive); in the assay with OVCAR-5, 3.76 µM (inactive); with OVCAR-8, 1.55 µM (inactive); with RXF 393, 3.5 µM (inactive). Moreover, the GI50 was 3.64 µM (inactive) in the assay with SF-295; 5.71 µM (inactive) in the assay with SF-539; 37 µM (inactive) in the assay on SK-MEL-5; 16.8 µM (inactive) in the assay on SW-620; 7.93 µM (inactive) in the assay with UACC-62.

With `O=c1c2cc(I)ccc2nc(-c2cccs2)n1O`, the GI50 with 786-0 was 55.2 µM (inactive); in the assay on CCRF-CEM, 27.7 µM (inactive); with COLO 205, > 100 µM (inactive); with HCT-116 it was 38.8 µM (inactive); with HCT-15, 33.9 µM; in the assay with HT-29 it was 48.6 µM (inactive). For the same molecule, the GI50 is 30.5 µM (inactive) with IGROV-1; 64.3 µM (inactive) in the assay on M14; 52.6 µM (inactive) in the assay on NCI-H226; 37.5 µM (inactive) with NCI-H522; 44.8 µM (inactive) in the assay with OVCAR-5; 38.1 µM (inactive) in the assay on OVCAR-8. Further, the GI50 was > 100 µM (inactive) with RXF 393; 31.1 µM (inactive) in the assay on SF-295; 44.6 µM (inactive) in the assay with SF-539; 45.1 µM (inactive) in the assay with SK-MEL-5; 37 µM (inactive) in the assay with SW-620; 90.6 µM (inactive) with UACC-62.
